Measurements reported in patent publication US20080021026A1, “BENZOTHIOPHENE INHIBITORS OF RHO KINASE” (priority 2006, published 2008).
Read-outs that look alike come from different tables or passages of the source.

Columns and labels:
[1] = target: T1, recombinant N-terminal GST-tagged human Rho kinase 1 (ROCK1, amino acids 1-535) (Homo sapiens, UniProt Q13464); experiment: In vitro Rho kinase assay (luciferase-based ATP consumption), ROCK1; assay type: biochemical
T1 construct: ROCK1, amino acids 1-535; purchased Invitrogen Inc. PV-3691
T1 sequence (Q13464 1-535): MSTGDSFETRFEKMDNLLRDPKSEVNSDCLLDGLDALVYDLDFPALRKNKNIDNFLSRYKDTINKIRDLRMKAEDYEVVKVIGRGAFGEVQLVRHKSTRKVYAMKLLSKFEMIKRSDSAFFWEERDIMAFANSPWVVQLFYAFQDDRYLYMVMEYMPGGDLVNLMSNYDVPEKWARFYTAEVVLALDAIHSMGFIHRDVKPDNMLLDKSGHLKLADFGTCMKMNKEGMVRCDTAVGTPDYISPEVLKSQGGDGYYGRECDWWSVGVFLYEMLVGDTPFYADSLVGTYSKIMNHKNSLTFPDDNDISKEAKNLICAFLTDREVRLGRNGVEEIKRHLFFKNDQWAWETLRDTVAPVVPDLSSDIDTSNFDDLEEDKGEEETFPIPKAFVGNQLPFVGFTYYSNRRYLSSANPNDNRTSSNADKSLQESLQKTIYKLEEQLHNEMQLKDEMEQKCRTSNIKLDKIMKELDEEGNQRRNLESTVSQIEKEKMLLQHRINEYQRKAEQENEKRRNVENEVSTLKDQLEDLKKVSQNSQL
Outline: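 GST-ROCK1 (aa 1-535) at 0.82 μg/ml with 100 μg/ml S6 peptide and 3 µM ATP in Tris pH 7.5 buffer with MgCl2, CaCl2, EGTA, BSA; compound added after reaction start, 2 h at 30 °C. Remaining ATP read by luciferase luminescence; efficacy as percent of H-1152P positive control.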

[2] = test system: lasered (hypertensive) eyes of conscious cynomolgus monkeys; experiment: Acute IOP response in lasered (hypertensive) eyes of conscious cynomolgus monkeys; assay type: in vivo; details: instilled in right eye, IOP measured at 1, 3 and 6 hours, peak reduction; for Peak % Lowering of IOP vs. Control at 0.3%: compound concentration 0.3%
Excerpt: Acute IOP Response in Lasered (Hypertensive) Eyes of Conscious Cynomolgus Monkeys
Intraocular pressure (IOP) can be determined with an Alcon Pneumatonometer after light corneal anesthesia with 0.1% proparacaine. Eyes are washed with saline after each measurement. After a baseline IOP measurement, test compound is instilled in one […] aliquot to the right eyes only of nine cynomolgus monkeys. Vehicle is instilled in the right eyes of six additional animals. Subsequent IOP measurements are taken at 1, 3, and 6 hours, and peak reduction in IOP is reported below in Table 2 as percent of IOP lowering versus the control for each of the given concentrations of compound.
A more detailed description of the assay used herein may be found in May et al., “Evaluation of the Ocular Hypotensive Response of Serotonin 5-HT1A and 5-HT2 Receptor Ligands in Conscious Ocular Hypertensive Cynomolgus Monkeys,” J. of Pharmacology and Experimental Therapeutics, vol. 306(1), pp. 301-309 (2003), the disclosure of which is hereby incorporated by reference as if written herein in its entirety.

[3] = target: T2, recombinant N-terminal GST-tagged human Rho kinase 2 (ROCK2, amino acids 1-552) (Homo sapiens, UniProt O75116); experiment: In vitro Rho kinase assay (luciferase-based ATP consumption), ROCK2; assay type: biochemical
T2 construct: ROCK2, amino acids 1-552; purchased Invitrogen Inc. PV3759
T2 sequence (O75116 1-552): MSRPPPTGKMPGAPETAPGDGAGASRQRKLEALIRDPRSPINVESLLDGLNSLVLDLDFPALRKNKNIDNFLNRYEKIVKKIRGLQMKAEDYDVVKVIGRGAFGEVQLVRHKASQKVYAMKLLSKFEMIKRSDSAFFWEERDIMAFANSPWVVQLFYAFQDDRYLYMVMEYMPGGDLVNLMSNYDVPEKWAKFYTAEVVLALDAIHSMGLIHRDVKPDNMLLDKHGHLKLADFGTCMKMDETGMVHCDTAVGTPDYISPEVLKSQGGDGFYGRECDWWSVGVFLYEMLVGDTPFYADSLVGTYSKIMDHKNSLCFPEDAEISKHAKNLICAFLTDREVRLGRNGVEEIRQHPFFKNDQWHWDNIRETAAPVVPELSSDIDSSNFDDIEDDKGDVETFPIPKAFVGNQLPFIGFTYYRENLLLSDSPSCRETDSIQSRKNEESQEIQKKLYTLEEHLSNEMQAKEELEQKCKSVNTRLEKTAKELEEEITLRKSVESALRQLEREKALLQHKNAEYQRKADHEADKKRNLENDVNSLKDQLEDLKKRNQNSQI
Outline: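 GST-ROCK2 (aa 1-552, 0.82 μg/ml) with 100 μg/ml S6 peptide and 3 µM ATP in Tris pH 7.5 buffer with MgCl2/CaCl2/EGTA/BSA, compound added just after reaction start, 2 h at 30 °C. Remaining ATP read by luciferase luminescence. Efficacy expressed as percentage of H-1152P positive control.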

[4] = recombinant GST-tagged human ROCK1, luciferase-based ATP consumption, read-out: ROCK1 IC50
[5] = recombinant GST-tagged human ROCK2, luciferase-based ATP consumption, read-out: ROCK2 IC50

Row | IC50 [1, 4] | IC50 [3, 5] | SMILES | Peak % Lowering of IOP vs. Control at 0.3% [2] | Peak % Lowering of IOP vs. Control at 1.0% ([2]; compound concentration 1.0%) | IC50 ([1]; ROCK1 IC50, recombinant GST-tagged human ROCK1, luciferase-based ATP consumption) | IC50 ([3]; ROCK2 IC50, recombinant GST-tagged human ROCK2, luciferase-based ATP consumption)
1 | < 5 µM | < 5 µM | COc1cccc(Cc2ccc3sc(-c4ccnc(N)n4)c(C)c3c2)c1 [Example 26, 4-(5-(3-Methoxybenzyl)-3-methylbenzo[b]thiophen-2-yl)pyrimidin-2-amine] | 9.8% |  |  | 
2 | < 5 µM | < 5 µM | Cc1c(-c2ccnc(N)n2)sc2ccc(Cc3cccc(O)c3)cc12 [Example 27, 3-((2-(2-Aminopyrimidin-4-yl)-3-methylbenzo[b]thiophen-5-yl)methyl)phenol] | 3.6% |  |  | 
3 | < 5 µM | < 5 µM | COc1cccc(Nc2ccc3sc(-c4ccnc(N)n4)c(C)c3c2)c1 [Example 51, 4-(5-(3-Methoxyphenylamino)-3-methylbenzo[b]thiophen-2-yl)pyrimidin-2-amine] | 9.5% | 18.6% |  | 
4 | < 5 µM | > 5 µM | COc1ccc2cc(C(C)C(=O)NCc3ccc4sc(-c5ccnc(N)n5)c(C)c4c3)ccc2c1 (stereo not shown) [Example 307, COc1ccc2cc(ccc2c1)[C](C)C(═O)NCc3ccc4sc(c(C)c4c3)-c5ccnc(N)n5] |  |  |  | 
5 | > 5 µM | > 5 µM | Cc1c(-c2ccnc(N)n2)sc2ccc(CNC(=O)C3CN(C(=O)OC(C)(C)C)CCN3)cc12 (stereo not shown) [Example 308, Cc1c(sc2ccc(CNC(═O)[C]3CN(CCN3)C(═O)OC(C)(C)C)cc12)-c4ccnc(N)n4] |  |  |  | 
6 | > 5 µM | < 5 µM | COc1ccc(Br)c(C(=O)NCc2ccc3sc(-c4ccnc(N)n4)c(C)c3c2)c1 [Example 310, COc1ccc(Br)c(c1)C(═O)NCc2ccc3sc(c(C)c3c2)-c4ccnc(N)n4] |  |  |  | 
7 | > 5 µM | > 5 µM | Cc1c(-c2ccnc(N)n2)sc2ccc(CNC(=O)C3CC(O)CN3C(=O)OC(C)(C)C)cc12 (stereo not shown) [Example 311, Cc1c(sc2ccc(CNC(═O)[C]3CC(O)CN3C(═O)OC(C)(C)C)cc12)-c4ccnc(N)n4] |  |  |  | 
8 | > 5 µM | > 5 µM | Cc1c(-c2ccnc(N)n2)sc2ccc(CNC(=O)C(C(C)C)N(C)C(=O)OC(C)(C)C)cc12 (stereo not shown) [Example 312, CC(C)C(N(C)C(═O)OC(C)(C)C)C(═O)NCc1ccc2sc(c(C)c2c1)-c3ccnc(N)n3] |  |  |  | 
9 | < 5 µM | < 5 µM | Cc1c(-c2ccnc(N)n2)sc2ccc(CNC(=O)c3ccc(C(F)(F)F)cc3[N+](=O)[O-])cc12 [Example 313, Cc1c(sc2ccc(CNC(═O)c3ccc(cc3[N+]([O−])═O)C(F)(F)F)cc12)-c4ccnc(N)n4] |  |  |  | 
10 |  |  | Cc1c(-c2ccnc(N)n2)sc2ccc(CNC(=O)c3cc(Br)ccc3Cl)cc12 [Example 314, Cc1c(sc2ccc(CNC(═O)c3cc(Br)ccc3Cl)cc12)-c4ccnc(N)n4] |  |  | < 5 µM | < 5 µM
11 | < 5 µM | < 5 µM | Cc1c(-c2ccnc(N)n2)sc2ccc(CNC(=O)c3ccc(Cl)c(Br)c3)cc12 [Example 315, Cc1c(sc2ccc(CNC(═O)c3ccc(Cl)c(Br)c3)cc12)-c4ccnc(N)n4] |  |  |  | 
12 | < 5 µM | < 5 µM | Cc1c(-c2ccnc(N)n2)sc2ccc(CNC(=O)c3ccccc3C(=O)c3ccc(O)cc3)cc12 [Example 316, Cc1c(sc2ccc(CNC(═O)c3ccccc3C(═O)c4ccc(O)cc4)cc12)-c5ccnc(N)n5] |  |  |  | 
13 | < 5 µM | > 5 µM | Cc1c(-c2ccnc(N)n2)sc2ccc(CNC(=O)c3ccccc3C(=O)c3ccc(F)cc3)cc12 [Example 317, Cc1c(sc2ccc(CNC(═O)c3ccccc3C(═O)c4ccc(F)cc4)cc12)-c5ccnc(N)n5] |  |  |  | 
14 | > 5 µM | < 5 µM | Cc1c(-c2ccnc(N)n2)sc2ccc(CNC(=O)C(C)c3ccc(-c4ccccc4)c(F)c3)cc12 (stereo not shown) [Example 318, CC(C(═O)NCc1ccc2sc(c(C)c2c1)-c3ccnc(N)n3)c4ccc(c(F)c4)-c5ccccc5] |  |  |  | 
15 | > 5 µM | < 5 µM | Cc1c(-c2ccnc(N)n2)sc2ccc(CNC(=O)c3ccc(I)cc3)cc12 [Example 319, Cc1c(sc2ccc(CNC(═O)c3ccc(I)cc3)cc12)-c4ccnc(N)n4] |  |  |  | 
16 | > 5 µM | < 5 µM | Cc1c(-c2ccnc(N)n2)sc2ccc(CNC(=O)c3cccc(I)c3)cc12 [Example 320, Cc1c(sc2ccc(CNC(═O)c3cccc(I)c3)cc12)-c4ccnc(N)n4] |  |  |  | 
17 | < 5 µM | > 5 µM | Cc1c(-c2ccnc(N)n2)sc2ccc(CNC(=O)C3CCCN3C(=O)OCc3ccccc3)cc12 (stereo not shown) [Example 321, Cc1c(sc2ccc(CNC(═O)[C]3CCCN3C(═O)OCc4ccccc4)cc12)-c5ccnc(N)n5] |  |  |  | 
18 | < 5 µM | > 5 µM | CCC(C)C(NC(=O)OC(C)(C)C)C(=O)NCc1ccc2sc(-c3ccnc(N)n3)c(C)c2c1 (stereo not shown) [Example 322, CCC(C)[C](NC(═O)OC(C)(C)C)C(═O)NCc1ccc2sc(c(C)c2c1)-c3ccnc(N)n3] |  |  |  | 
19 | < 5 µM | > 5 µM | Cc1c(-c2ccnc(N)n2)sc2ccc(CNC(=O)C(CC(C)C)NC(=O)OC(C)(C)C)cc12 (stereo not shown) [Example 323, CC(C)C[C](NC(═O)OC(C)(C)C)C(═O)NCc1ccc2sc(c(C)c2c1)-c3ccnc(N)n3] |  |  |  | 
20 | > 5 µM | > 5 µM | Cc1c(-c2ccnc(N)n2)sc2ccc(CNC(=O)C(C)c3cccc(C(=O)c4ccccc4)c3)cc12 (stereo not shown) [Example 324, CC(C(═O)NCc1ccc2sc(c(C)c2c1)-c3ccnc(N)n3)c4cccc(c4)C(═O)c5ccccc5] |  |  |  | 
21 | < 5 µM | > 5 µM | Cc1c(-c2ccnc(N)n2)sc2ccc(CNC(=O)C(Cc3ccccc3)NC(=O)OC(C)(C)C)cc12 (stereo not shown) [Example 325, Cc1c(sc2ccc(CNC(═O)[C](Cc3ccccc3)NC(═O)OC(C)(C)C)cc12)-c4ccnc(N)n4] |  |  |  | 
22 | < 5 µM | > 5 µM | Cc1c(-c2ccnc(N)n2)sc2ccc(CNC(=O)C(Cc3ccccn3)NC(=O)OC(C)(C)C)cc12 (stereo not shown) [Example 326, Cc1c(sc2ccc(CNC(═O)[C](Cc3ccccn3)NC(═O)OC(C)(C)C)cc12)-c4ccnc(N)n4] |  |  |  | 
23 | < 5 µM | > 5 µM | Cc1c(-c2ccnc(N)n2)sc2ccc(CNC(=O)C3Cc4ccccc4CN3C(=O)OC(C)(C)C)cc12 (stereo not shown) [Example 327, Cc1c(sc2ccc(CNC(═O)[C]3Cc4ccccc4CN3C(═O)OC(C)(C)C)cc12)-c5ccnc(N)n5] |  |  |  | 
24 | < 5 µM | < 5 µM | Cc1c(-c2ccnc(N)n2)sc2ccc(CNC(=O)C(Cc3ccc(O)cc3)NC(=O)OC(C)(C)C)cc12 (stereo not shown) [Example 328, Cc1c(sc2ccc(CNC(═O)C(Cc3ccc(O)cc3)NC(═O)OC(C)(C)C)cc12)c4ccnc(N)n4] |  |  |  | 
